Assay results published in patent US7432397B2, “Imaging compounds” (Hammersmith Imanet Ltd., priority 2002, dated 2008).
Marks after values point to notes of the source that are not given here.

Experiment: Biodistribution of radioactivity in rat tissues after intravenous injection
Type: in vivo
Settings: for Radioactivity in Entorhinal cortex / Radioactivity in Fat / Radioactivity in Heart (ventricle) / Radioactivity in Hippocampus / Radioactivity in Hypothalamus / Radioactivity in Inferior collicull / Radioactivity in Kidney / Radioactivity in Large intestine / Radioactivity in Lge. intestine content / Radioactivity in Liver / Radioactivity in Lung / Radioactivity in Medulla with Pons / Radioactivity in Olfactory bulbs / Radioactivity in Olfactory tubercles / Radioactivity in Prefrontal cortex / Radioactivity in Skeletal muscle / Radioactivity in Skin / Radioactivity in Sm. intestine content / Radioactivity in Small intestine / Radioactivity in Somatosensory cortex / Radioactivity in Spleen / Radioactivity in Stomach / Radioactivity in Striata / Radioactivity in Superior collicull / Radioactivity in Testis / Radioactivity in Thalamus / Radioactivity in Urine / Radioactivity in Visual cortex / Radioactivity in Plasma / Radioactivity in Whole blood / Radioactivity in Cerebellum: i.v.; for Radioactivity in Plasma / Radioactivity in Whole blood: composite curve of 9 rats
Description: Sixteen adult male Sprague-Dawley rats (body weight 250-320 g: mean±SD=288±25 g) were used in 5 separate experiments. Each rat was injected with ˜13 MBq Compound 1, at a specific activity of […], via a previously catheterised tail vein. The associated stable compound was 0.5±0.2 nmol/kg. Discrete samples of arterial blood were collected from 9 of the rats via a previously catheterised tail artery.
Tissues were sampled post-mortem using an established protocol, as described in Hirani et al, Synapse 42:164-176 (2001). The radioactivity concentration data obtained at 12 times up to 90 min after radioligand injection were normalised for both amount injected and body weight, giving:—‘uptake units’=(cpm/g tissue)/(injected cpm/g body weight).

[1] = period 5 to 90 min after intravenous injection

## CSc1cccc(N([11CH3])C(=N)Nc2cc(SC)ccc2Cl)c1 [Compound 1, (N-(2-chloro-5-(methylthio)phenyl)-N′-(3-methylthio)phenyl)-N′-[N-methyl-^11C]-methylguanidine]
30 min
  Radioactivity in Entorhinal cortex: 1.31 Uptake Units
  Radioactivity in Fat: 0.71 Uptake Units
  Radioactivity in Heart (ventricle): 0.99 Uptake Units
  Radioactivity in Hippocampus: 1.32 Uptake Units
  Radioactivity in Hypothalamus: 1.22 Uptake Units
  Radioactivity in Inferior collicull: 1.16 Uptake Units
  Radioactivity in Kidney: 2.85 Uptake Units
  Radioactivity in Large intestine: 1.11 Uptake Units
  Radioactivity in Lge. intestine content: 0.36 Uptake Units
  Radioactivity in Liver: 7.84 Uptake Units
  Radioactivity in Lung: 7.48 Uptake Units
  Radioactivity in Medulla with Pons: 1.26 Uptake Units
  Radioactivity in Olfactory bulbs: 1.10 Uptake Units
  Radioactivity in Olfactory tubercles: 1.24 Uptake Units
  Radioactivity in Prefrontal cortex: 1.51 Uptake Units
  Radioactivity in Skeletal muscle: 0.68 Uptake Units
  Radioactivity in Skin: 0.75 Uptake Units
  Radioactivity in Sm. intestine content: 7.14 Uptake Units
  Radioactivity in Small intestine: 2.30 Uptake Units
  Radioactivity in Somatosensory cortex: 1.37 Uptake Units
  Radioactivity in Spleen: 4.75 Uptake Units
  Radioactivity in Stomach: 1.07 Uptake Units
  Radioactivity in Striata: 1.32 Uptake Units
  Radioactivity in Superior collicull: 1.19 Uptake Units
  Radioactivity in Testis: 0.76 Uptake Units
  Radioactivity in Thalamus: 1.43 Uptake Units
  Radioactivity in Urine: 37.5 Uptake Units
  Radioactivity in Visual cortex: 1.55 Uptake Units
  Radioactivity in Plasma: 0.18 Uptake Units
  Radioactivity in Whole blood: 0.19 Uptake Units
40 min
  Radioactivity in Cerebellum: 0.62 Uptake Units
  Radioactivity in Entorhinal cortex: 0.85 Uptake Units
  Radioactivity in Fat: 0.45 Uptake Units
  Radioactivity in Heart (ventricle): 0.63 Uptake Units
  Radioactivity in Hippocampus: 0.86 Uptake Units
  Radioactivity in Hypothalamus: 0.76 Uptake Units
  Radioactivity in Inferior collicull: 0.64 Uptake Units
  Radioactivity in Kidney: 1.79 Uptake Units
  Radioactivity in Large intestine: 0.66 Uptake Units
  Radioactivity in Lge. intestine content: 0.23 Uptake Units
  Radioactivity in Liver: 5.76 Uptake Units
  Radioactivity in Lung: 3.99 Uptake Units
  Radioactivity in Medulla with Pons: 0.80 Uptake Units
  Radioactivity in Olfactory bulbs: 0.64 Uptake Units
  Radioactivity in Olfactory tubercles: 0.72 Uptake Units
  Radioactivity in Prefrontal cortex: 0.93 Uptake Units
  Radioactivity in Skeletal muscle: 0.61 Uptake Units
  Radioactivity in Skin: 0.39 Uptake Units
  Radioactivity in Sm. intestine content: 3.68 Uptake Units
  Radioactivity in Small intestine: 1.09 Uptake Units
  Radioactivity in Somatosensory cortex: 0.88 Uptake Units
  Radioactivity in Spleen: 2.83 Uptake Units
  Radioactivity in Stomach: 0.45 Uptake Units
  Radioactivity in Striata: 0.84 Uptake Units
  Radioactivity in Superior collicull: 0.65 Uptake Units
  Radioactivity in Testis: 0.74 Uptake Units
  Radioactivity in Thalamus: 0.92 Uptake Units
  Radioactivity in Urine: 27.5 Uptake Units
  Radioactivity in Visual cortex: 0.89 Uptake Units
  Radioactivity in Plasma: 0.16 Uptake Units
  Radioactivity in Whole blood: 0.16 Uptake Units
50 min
  Radioactivity in Cerebellum: 0.55 Uptake Units
  Radioactivity in Entorhinal cortex: 0.75 Uptake Units
  Radioactivity in Fat: 0.49 Uptake Units
  Radioactivity in Heart (ventricle): 0.50 Uptake Units
  Radioactivity in Hippocampus: 0.73 Uptake Units
  Radioactivity in Hypothalamus: 0.61 Uptake Units
  Radioactivity in Inferior collicull: 0.56 Uptake Units
  Radioactivity in Kidney: 1.68 Uptake Units
  Radioactivity in Large intestine: 0.76 Uptake Units
  Radioactivity in Lge. intestine content: 0.35 Uptake Units
  Radioactivity in Liver: 5.01 Uptake Units
  Radioactivity in Lung: 5.30 Uptake Units
  Radioactivity in Medulla with Pons: 0.70 Uptake Units
  Radioactivity in Olfactory bulbs: 0.58 Uptake Units
  Radioactivity in Olfactory tubercles: 0.65 Uptake Units
  Radioactivity in Prefrontal cortex: 0.80 Uptake Units
  Radioactivity in Skeletal muscle: 0.61 Uptake Units
  Radioactivity in Skin: 0.52 Uptake Units
  Radioactivity in Sm. intestine content: 4.03 Uptake Units
  Radioactivity in Small intestine: 1.19 Uptake Units
  Radioactivity in Somatosensory cortex: 0.71 Uptake Units
  Radioactivity in Spleen: 2.95 Uptake Units
  Radioactivity in Stomach: 0.32 Uptake Units
  Radioactivity in Striata: 0.69 Uptake Units
  Radioactivity in Superior collicull: 0.57 Uptake Units
  Radioactivity in Testis: 0.69 Uptake Units
  Radioactivity in Thalamus: 0.85 Uptake Units
  Radioactivity in Urine: 84.5 Uptake Units
  Radioactivity in Visual cortex: 0.72 Uptake Units
  Radioactivity in Plasma: 0.17 Uptake Units
  Radioactivity in Whole blood: 0.16 Uptake Units
60 min
  Radioactivity in Cerebellum: 0.54* Uptake Units
  Radioactivity in Entorhinal cortex: 0.73* Uptake Units
  Radioactivity in Fat: 0.79* Uptake Units
  Radioactivity in Heart (ventricle): 0.59* Uptake Units
  Radioactivity in Hippocampus: 0.76* Uptake Units
  Radioactivity in Hypothalamus: 0.65* Uptake Units
  Radioactivity in Inferior collicull: 0.54* Uptake Units
  Radioactivity in Kidney: 1.87* Uptake Units
  Radioactivity in Large intestine: 1.03* Uptake Units
  Radioactivity in Lge. intestine content: 0.44* Uptake Units
  Radioactivity in Liver: 5.73* Uptake Units
  Radioactivity in Lung: 4.10* Uptake Units
  Radioactivity in Medulla with Pons: 0.67* Uptake Units
  Radioactivity in Olfactory bulbs: 0.55* Uptake Units
  Radioactivity in Olfactory tubercles: 0.65* Uptake Units
  Radioactivity in Prefrontal cortex: 0.77* Uptake Units
  Radioactivity in Skeletal muscle: 0.49* Uptake Units
  Radioactivity in Skin: 0.46* Uptake Units
  Radioactivity in Sm. intestine content: 6.08* Uptake Units
  Radioactivity in Small intestine: 1.29* Uptake Units
  Radioactivity in Somatosensory cortex: 0.68* Uptake Units
  Radioactivity in Spleen: 2.98* Uptake Units
  Radioactivity in Stomach: 0.66* Uptake Units
  Radioactivity in Striata: 0.67* Uptake Units
  Radioactivity in Superior collicull: 0.54* Uptake Units
  Radioactivity in Testis: 0.89* Uptake Units
  Radioactivity in Thalamus: 0.74* Uptake Units
  Radioactivity in Urine: 24.4* Uptake Units
  Radioactivity in Visual cortex: 0.73* Uptake Units
  Radioactivity in Plasma: 0.18 Uptake Units
  Radioactivity in Whole blood: 0.17 Uptake Units
70 min
  Radioactivity in Cerebellum: 0.38* Uptake Units
  Radioactivity in Entorhinal cortex: 0.41 Uptake Units
  Radioactivity in Fat: 0.55* Uptake Units
  Radioactivity in Heart (ventricle): 0.52* Uptake Units
  Radioactivity in Hippocampus: 0.54* Uptake Units
  Radioactivity in Hypothalamus: 0.33 Uptake Units
  Radioactivity in Inferior collicull: 0.39 Uptake Units
  Radioactivity in Kidney: 1.88* Uptake Units
  Radioactivity in Large intestine: 0.76* Uptake Units
  Radioactivity in Lge. intestine content: 0.57* Uptake Units
  Radioactivity in Liver: 6.02* Uptake Units
  Radioactivity in Lung: 4.62* Uptake Units
  Radioactivity in Medulla with Pons: 0.39 Uptake Units
  Radioactivity in Olfactory bulbs: 0.31 Uptake Units
  Radioactivity in Olfactory tubercles: 0.36 Uptake Units
  Radioactivity in Prefrontal cortex: 0.52* Uptake Units
  Radioactivity in Skeletal muscle: 0.44* Uptake Units
  Radioactivity in Skin: 0.47* Uptake Units
  Radioactivity in Sm. intestine content: 5.41* Uptake Units
  Radioactivity in Small intestine: 1.34* Uptake Units
  Radioactivity in Somatosensory cortex: 0.38 Uptake Units
  Radioactivity in Spleen: 2.97* Uptake Units
  Radioactivity in Stomach: 0.96 Uptake Units
  Radioactivity in Striata: 0.46* Uptake Units
  Radioactivity in Superior collicull: 0.28 Uptake Units
  Radioactivity in Testis: 0.74* Uptake Units
  Radioactivity in Thalamus: 0.40 Uptake Units
  Radioactivity in Urine: 16.9* Uptake Units
  Radioactivity in Visual cortex: 0.38 Uptake Units
  Radioactivity in Plasma: 0.20 Uptake Units
  Radioactivity in Whole blood: 0.18 Uptake Units
90 min
  Radioactivity in Cerebellum: 0.32* Uptake Units
  Radioactivity in Entorhinal cortex: 0.38* Uptake Units
  Radioactivity in Fat: 0.51* Uptake Units
  Radioactivity in Heart (ventricle): 0.40* Uptake Units
  Radioactivity in Hippocampus: 0.46* Uptake Units
  Radioactivity in Hypothalamus: 0.35* Uptake Units
  Radioactivity in Inferior collicull: 0.36 Uptake Units
  Radioactivity in Kidney: 1.50* Uptake Units
  Radioactivity in Large intestine: 0.61* Uptake Units
  Radioactivity in Lge. intestine content: 0.66* Uptake Units
  Radioactivity in Liver: 3.85* Uptake Units
  Radioactivity in Lung: 2.62* Uptake Units
  Radioactivity in Medulla with Pons: 0.39* Uptake Units
  Radioactivity in Olfactory bulbs: 0.28* Uptake Units
  Radioactivity in Olfactory tubercles: 0.36* Uptake Units
  Radioactivity in Prefrontal cortex: 0.45* Uptake Units
  Radioactivity in Skeletal muscle: 0.35* Uptake Units
  Radioactivity in Skin: 0.40* Uptake Units
  Radioactivity in Sm. intestine content: 3.66* Uptake Units
  Radioactivity in Small intestine: 0.93* Uptake Units
  Radioactivity in Somatosensory cortex: 0.43* Uptake Units
  Radioactivity in Spleen: 2.07* Uptake Units
  Radioactivity in Stomach: 0.34* Uptake Units
  Radioactivity in Striata: 0.41* Uptake Units
  Radioactivity in Superior collicull: 0.23 Uptake Units
  Radioactivity in Testis: 0.79* Uptake Units
  Radioactivity in Thalamus: 0.42* Uptake Units
  Radioactivity in Urine: 46.4* Uptake Units
  Radioactivity in Visual cortex: 0.44* Uptake Units
  Radioactivity in Plasma: 0.21 Uptake Units
  Radioactivity in Whole blood: 0.18 Uptake Units
[1]
  radioactivity level in plasma: ~0.2 uptake units
  radioactivity level in whole blood: ~0.2 uptake units
